Patent US20060058379A1, “Connexin 26 inhibitor and cancer metastasis inhibitors” (priority 2002, published 2006)
“Also recorded” adds a separate entry of the source.

Legend:
[1] = test system: BL6 cells (substrains of B16 mouse melanoma cells); assay: Cancer metastasis inhibitory action test 2: spontaneous lung metastasis after subcutaneous BL6 inoculation; assay type: in vivo; conditions: C57B1/6 mice, counted four weeks after dismembering
Description: After subcutaneously inoculating 1×10^5 BL6 cells (substrains of B16 mouse melanoma cells) to a planter of each C57B1/6 mouse, the mice were classified into three groups. • 1) Control mice (Nt) with no treatment but transplanting […]; • 2) Oleamide (25 mg/kg/day) administration group: peritoneal injection of olive oil 0.2 ml dissolved with oleamide at concentration of 25 mg/kg/day once a day on consecutive days; and • 3) MI-18 (10 mg/kg/day) administration group: olive oil 0.2 ml dissolved with MI-18 at concentration of 10 mg/kg/day once a day on consecutive days.
The mice were treated in the above manners every day after the BL6 cells inoculation. Then, on about 18th day, tumors (about eight mm radical) formed at the injected points were removed by dismembering at knee joints. Then the mice were treated in the above manners for another two days after the dismembering. After that, mice were fed without the treatments. At four weeks after dismembering at the knee joints, the mice were euthanized, and metastasized tubercles in both left and right lungs (the number of focuses) were counted visually (refer to FIG. 2 (a) through (c) and FIG. 3). Cancer metastasis inhibitory action was evaluated using 15 mice for each group. […] Therefore, these materials are highly safe. […]

[2] = Death of mice due to causes other than cancer under daily administration (Example 5); assay type: in vivo, mouse; conditions: C57B1/6 mice, approximately two months, FIG. 5
connexin 26 = molecular target: T1, connexin 26 (Rattus norvegicus, UniProt P21994); assay: Dye-transfer assay (GJIC) in HeLa-Cx26 cells; assay type: cell-based; conditions: HeLa-Cx26, calcein/DiI dye transfer, FIG. 1
T1 construct: expressed in transfected cells; host or cells: HeLa (human cervical carcinoma) subclone HeLa-Cx26
From the text: The connexin 26 inhibitory activity can be evaluated with dye-transfer assay, for example. Specifically, a gap junction level (GJIC score) against the connexin 26 is used for evaluation (c.f. Japanese Laid-Open Patent Publication No. 17184/2001, “Tokukai 2001-17184, publication date: Jan. 23, 2001, and M. Mensil et al. Cancer Res. Vol 55, 629-639 1995.).
With this method, labelling dye, which can be transferred to outside of cells only through the gap junctions, is introduced into cells. Then the cells are smeared on a monolayer culture or a tissue culture. […]
GJIC score can be calculated as described in following examples. That is, if no dye-coupling occurs with respect to the donor cells, “0” is scored; “1” is scored if dye-coupling from the donor cell to an adjacent receptive cell occurs; and “2” is scored if dye-coupling from the donor cell to a second adjacent cell occurs. In this manner, when dye-coupling to n^th adjacent cell from the donor cell occurs, “n” (an integer) is scored. […]
(§1) Cells containing the gap junction-impermeable DiI (red fluorescence) were identified as donor cells. […]
The level of gap junction cell-to-cell communication (GJIC) was scored by the following methods. […]

connexin 43 = molecular target: T2, connexin 43 (Rattus norvegicus, UniProt P08050); assay: Dye-transfer assay (GJIC) in HeLa-Cx43 cells; assay type: cell-based; conditions: HeLa-Cx43, calcein/DiI dye transfer, FIG. 1
T2 construct: contained a cDNA fragment of an entire coding region of rat Cx43; expressed in transfected cells; host or cells: HeLa cells stably transfected with pCX4bsr-Cx43 (clone HeLa-Cx43)
From the text: A pCX4bsr vector was derived from the pCXbsr vector (T Akagi., et al., 2000, Proc. Natl. Acad. Sci. USA) with minor modification. The pCX4bsr vector was kindly given by Dr. T Akagi (Osaka Bioscience Institute, Osaka, Japan). The pBluescriptII SK+plasmid vector contained a cDNA fragment of an entire coding region of rat Cx43 between the Spel and ClaI sites, and was constructed previously (Y. Omori., et al., 1998, Int. J. Cancer). The Cx43cDNA was excised by digesting NotI and HincII, and being ligated with the pCX4bsr where NotI and HincII were digested. HeLa cells were transfected with the resulting pCX4bsr-Cx43 vector by using the TransFast transfection regent. […]
as §1
The level of gap junction cell-to-cell communication (GJIC) was scored by the following methods.
Donor cells were scored as 0 for no dye-coupling, as 1 for dye-coupling from a donor cell to an adjacent recipient cell, and as 2 or 3 when calcein transferred to the adjacent recipient cell further transfers to a second or a third adjacent cell, subsequently, in a direction away from the donor cell. […] The experiments were repeated three times and mean and standard deviation of score counts were calculated for each factor. […]

[3] = test system: BL6 cells (substrains of B16 mouse melanoma cells); assay: Cancer metastasis inhibitory action test 1: spontaneous lung metastasis after subcutaneous BL6 inoculation; assay type: in vivo; conditions: C57B1/6 mice; for metastasized tubercles in lungs (number of foci) vs vehicle group: counted four weeks after dismembering
Description: The mice were treated in the above manners on consecutive days after the BL6 cells inoculation. Then, on about 18th day, tumors (about six mm in diameter) formed at inoculation points were removed by dismembering at knee joints. Then the mice were treated in the above manners for another two days after the dismembering. After that, the mice were fed without the treatments. At four weeks after the dismembering at the knee joints, the mice were euthanized, and metastasized tubercles in both left and right lungs (the number of focuses) were counted visually (refer to FIG. 2 (a) through (c) and FIG. 3). Cancer metastasis inhibitory action was evaluated using 10 mice for each group.

T2 sequence (P08050 2-382): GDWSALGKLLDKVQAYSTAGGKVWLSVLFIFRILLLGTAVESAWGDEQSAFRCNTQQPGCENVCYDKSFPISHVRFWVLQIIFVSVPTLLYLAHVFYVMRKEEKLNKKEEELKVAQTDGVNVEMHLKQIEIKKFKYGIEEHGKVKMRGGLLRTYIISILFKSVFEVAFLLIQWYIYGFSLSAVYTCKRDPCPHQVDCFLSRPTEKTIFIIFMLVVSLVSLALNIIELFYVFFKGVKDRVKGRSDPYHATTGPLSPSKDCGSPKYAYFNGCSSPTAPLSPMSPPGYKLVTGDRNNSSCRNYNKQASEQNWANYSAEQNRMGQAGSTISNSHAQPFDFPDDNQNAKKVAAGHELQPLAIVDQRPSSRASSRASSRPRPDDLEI

Row | SMILES | metastasized tubercles in lungs (number of foci) vs untreated group ([1]; 10 mg/kg/day once a day) | death of mice due to causes other than cancer ([2]; 10 mg/kg/day every day) | inhibitory activity against connexin 26 (gap junction dye-coupling) (connexin 26) | inhibitory activity against connexin 43 (gap junction dye-coupling) (connexin 43) | metastasized tubercles in lungs (number of foci) vs vehicle group ([3]; 25 mg/kg/day peritoneal injection twice a day) | metastasized tubercles in lungs (number of foci) vs vehicle group ([3]; 50 mg/kg/day twice a day) | metastasized tubercles in lungs (number of foci) ([3]; 500 mg/kg/day, FIG. 2 (d)) | metastasized tubercles in lungs (number of foci) vs untreated group ([1]; 25 mg/kg/day peritoneal injection once a day) | death of mice due to causes other than cancer ([2]; 25 mg/kg/day every day, 25 mg/kg/day)
1 | CCCCCCCC[C@H]1O[C@H]1CCCCCCCC(N)=O (relative stereo) [MI-18, 8-[(2S*3R*)-3-octyloxirane-2-yl]octanamide] | fewer metastasized tubercles and significantly exhibited cancer metastasis inhibitory activity | no mice died due to other causes but cancer | exhibits inhibitory activity | specifically inhibits only connexin 26 |  |  |  |  | 
2 | CCCCCCCC/C=C\CCCCCCCC(N)=O [oleamide, 9(Z)-Octadecenamide] |  |  | exhibited inhibitory action; also recorded: exhibits inhibitory activity | exhibited inhibitory action | fewer metastasized tubercles and significantly exhibited cancer metastasis inhibitory action | fewer metastasized tubercles and significantly exhibited cancer metastasis inhibitory action | the similar result was obtained | fewer metastasized tubercles and significantly exhibited cancer metastasis inhibitory activity | death rates due to causes other than cancer were low; also recorded: no mice died due to other causes but cancer
